Assay results reported in the supplement of paper PMC10307832.

Columns and labels:
Test in all cases: relative viability (nuclei count vs DMSO), 5 days (fraction); higher = more cells survive
Bortezomib + Pictilisib = compound: CC(C)C[C@H](NC(=O)[C@H](Cc1ccccc1)NC(=O)c1cnccn1)B(O)O [Bortezomib] + CS(=O)(=O)N1CCN(Cc2cc3nc(-c4cccc5[nH]ncc45)nc(N4CCOCC4)c3s2)CC1 [Pictilisib] (partner 1 µM)
Outline: (§1)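 A single step with final 0.05% Triton X-100, 1% formaldehyde and 1 ug/ml Hoechst fixed the cells and stained nuclei 5 days after treatment. Lung cancer cell lines in 1536-well plates had been treated by pin tool the day after seeding with one drug alone or a fixed anchor-drug dose plus five library-drug doses (not always all listed) in √10 steps, and nuclei were counted on 4× images. Relative viability is the ratio of nuclei in treated wells to nuclei in vehicle wells, taken as the median of duplicate plates.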

[1] = compound: CC1=CC(=NN1)NC2=CC(=NC(=N2)/C=C/C3=CC=CC=C3)N4CCN(CC4)C + Cc1nc(Nc2ncc(C(=O)Nc3c(C)cccc3Cl)s2)cc(N2CCN(CCO)CC2)n1 [Dasatinib] (partner 0.075 µM)
Outline: as §1

Obatoclax + Crizotinib = compound: COC1=CC(c2cc3ccccc3[nH]2)=N/C1=C\c1[nH]c(C)cc1C [Obatoclax] + C[C@@H](Oc1cc(-c2cnn(C3CCNCC3)c2)cnc1N)c1c(Cl)ccc(F)c1Cl [Crizotinib] (partner 1 µM)
Outline: as §1

Obatoclax + Tozasertib = compound: COC1=CC(c2cc3ccccc3[nH]2)=N/C1=C\c1[nH]c(C)cc1C [Obatoclax] + Cc1cc(Nc2cc(N3CCN(C)CC3)nc(Sc3ccc(NC(=O)C4CC4)cc3)n2)n[nH]1 [Tozasertib] (partner 0.1 µM)
Outline: as §1

Row | Cell Line | relative viability (Bortezomib + Pictilisib; first compound 0.0002 µM) | relative viability (Bortezomib + Pictilisib; first compound 0.002 µM) | relative viability (Bortezomib + Pictilisib; first compound 0.006325 µM) | relative viability (Bortezomib + Pictilisib; first compound 0.02 µM) | relative viability ([1]; first compound 0.08 µM) | relative viability ([1]; first compound 0.253 µM) | relative viability ([1]; first compound 0.8 µM) | relative viability ([1]; first compound 2.53 µM) | relative viability ([1]; first compound 8 µM) | relative viability (Obatoclax + Crizotinib; first compound 0.01 µM) | relative viability (Obatoclax + Crizotinib; first compound 0.03162 µM) | relative viability (Obatoclax + Crizotinib; first compound 0.1 µM) | relative viability (Obatoclax + Crizotinib; first compound 0.3162 µM) | relative viability (Obatoclax + Crizotinib; first compound 1 µM) | relative viability (Obatoclax + Tozasertib; first compound 0.01 µM) | relative viability (Obatoclax + Tozasertib; first compound 0.03162 µM) | relative viability (Obatoclax + Tozasertib; first compound 0.1 µM) | relative viability (Obatoclax + Tozasertib; first compound 0.3162 µM) | relative viability (Obatoclax + Tozasertib; first compound 1 µM) | relative viability (Bortezomib + Pictilisib; first compound 0.000632 µM)
1 | LU99A | 0.385 | 0.35 | 0.328 | 0.169 | 0.546 | 0.547 | 0.475 | 0.22 | 0.146 | 0.614 | 0.498 | 0.569 | 0.236 | 0.233 | 0.304 | 0.28 | 0.287 | 0.288 | 0.233 | –
2 | LXF-289 | 0.829 | 0.717 | 0.07 | 0.0457 | 0.258 | 0.26 | 0.187 | 0.0576 | 0.0234 | 0.796 | 0.8 | 0.83 | 0.822 | 0.679 | 0.192 | 0.216 | 0.215 | 0.168 | 0.131 | 0.81
3 | NCI-H23 | – | 0.381 | 0.144 | 0.131 | 0.769 | 0.764 | 0.815 | 0.683 | 0.137 | 0.555 | 0.507 | 0.469 | 0.527 | 0.282 | 0.378 | 0.484 | 0.454 | 0.301 | 0.241 | 0.407
4 | NCI-H322M | 0.49 | 0.523 | 0.459 | 0.554 | 0.268 | 0.254 | 0.228 | 0.206 | 0.209 | 0.822 | 0.932 | 0.845 | 1.01 | 0.96 | 0.505 | 0.451 | – | 0.463 | 0.344 | –
5 | NCI-H358 | 0.331 | 0.357 | 0.207 | 0.16 | 0.171 | 0.23 | 0.173 | 0.08 | 0.0626 | 0.46 | 0.57 | 0.592 | 0.374 | 0.352 | 0.105 | 0.117 | 0.0958 | 0.0729 | 0.065 | 0.305
6 | NCI-H441 | 0.483 | 0.35 | 0.0918 | 0.102 | 0.526 | 0.443 | 0.61 | 0.159 | 0.117 | 0.676 | 0.742 | 0.724 | 0.604 | 0.549 | 0.497 | 0.677 | 0.666 | 0.52 | 0.385 | 0.315
7 | NCI-H460 | 0.334 | 0.435 | 0.36 | 0.346 | 0.545 | 0.546 | 0.487 | 0.144 | 0.0157 | 0.727 | 0.716 | 0.605 | 0.244 | 0.0446 | 0.419 | 0.504 | 0.424 | 0.443 | 0.188 | 0.376
8 | NCI-H520 | 0.269 | 0.229 | 0.184 | 0.184 | 0.202 | 0.194 | 0.166 | 0.143 | 0.118 | 0.781 | 0.777 | 0.774 | 0.628 | 0.461 | 0.42 | 0.434 | 0.492 | 0.402 | 0.295 | 0.283
9 | NCI-H596 | 0.513 | 0.327 | 0.15 | 0.128 | 0.638 | 0.522 | 0.536 | 0.357 | 0.216 | 0.987 | 0.898 | 0.946 | 0.655 | 0.565 | 0.911 | 0.915 | 0.837 | 0.564 | 0.597 | 0.369
10 | NCI-H647 | 0.331 | 0.364 | 0.0521 | 0.0347 | 0.185 | 0.186 | 0.2 | 0.0436 | 0.0226 | 0.997 | 1.13 | 0.762 | 0.286 | 0.133 | 0.254 | 0.304 | 0.301 | 0.222 | 0.112 | 0.287
11 | NCI-H661 | 0.355 | 0.435 | 0.335 | 0.225 | 0.824 | 0.808 | 0.853 | 0.243 | 0.237 | 0.851 | – | – | – | 1.03 | 0.365 | 0.336 | 0.393 | 0.355 | 0.357 | 0.328
12 | NCI-H727 | 0.34 | 0.329 | 0.192 | 0.106 | 0.372 | – | 0.407 | 0.257 | 0.186 | 0.828 | 0.792 | 0.832 | 0.87 | 0.605 | 0.581 | 0.58 | 0.755 | 0.509 | 0.707 | 0.345
13 | NCI-H838 | 0.425 | 0.556 | 0.158 | 0.128 | 0.3 | 0.279 | 0.247 | 0.255 | 0.141 | 0.848 | 0.959 | 0.827 | 0.77 | 0.777 | 0.292 | 0.253 | 0.292 | 0.25 | 0.221 | 0.499
14 | NCI-H1355 | 0.376 | 0.497 | 0.202 | 0.136 | 0.723 | 0.727 | 0.684 | 0.248 | 0.121 | 1.13 | 0.93 | 1.04 | 1.03 | 0.915 | 0.602 | 0.588 | 0.623 | 0.538 | 0.466 | 0.396
15 | NCI-H1437 | 0.41 | 0.434 | 0.0867 | 0.0795 | 0.377 | 0.455 | 0.404 | 0.273 | 0.0967 | 0.804 | 0.857 | 0.861 | 0.896 | 1.03 | 0.414 | 0.439 | 0.437 | 0.457 | 0.521 | 0.512
16 | NCI-H1650 | 0.24 | 0.17 | 0.153 | 0.15 | 0.376 | 0.288 | 0.37 | 0.125 | 0.0926 | 0.892 | 1.01 | 1.05 | 0.699 | 0.297 | 0.417 | 0.358 | 0.425 | 0.275 | 0.266 | 0.488
